According to article PMC10004634 (PLOS ONE, 2023):

Assays:
Experiment in all cases: biochemical
Parameters in all cases: KINOMEscan scanMAX competition binding, DNA-tagged kinases, qPCR read-out, percent control at 300 nM
TLK2 = TLK2 (Homo sapiens, UniProt Q86UE8); conditions: read-out: Percent control / Tirabrutinib
PRKR = target: T1, PRKR (Homo sapiens, UniProt P19525); conditions: read-out: Percent control / Tirabrutinib
T1 construct: gene EIF2AK2

DAPK3 = DAPK3 (Homo sapiens, UniProt O43293); conditions: read-out: Percent control / Ibrutinib
ACVR1 = ACVR1 (Homo sapiens, UniProt Q04771); conditions: read-out: Percent control / Zanubrutinib
PRKG2 = PRKG2 (Homo sapiens, UniProt Q13237); conditions: read-out: Percent control / Zanubrutinib
CASK = CASK (Homo sapiens, UniProt O14936); conditions: read-out: Percent control / Zanubrutinib
SNARK = target: T2, SNARK (Homo sapiens, UniProt Q9H093); conditions: read-out: Percent control / Zanubrutinib
T2 construct: gene NUAK2

PIK3CA(E545A) = PIK3CA(E545A) (Homo sapiens, UniProt P42336, E545A); conditions: read-out: Percent control / Zanubrutinib
NEK6 = NEK6 (Homo sapiens, UniProt Q9HC98); conditions: read-out: Percent control / Zanubrutinib
GRK1 = GRK1 (Homo sapiens, UniProt Q15835); conditions: read-out: Percent control / Zanubrutinib
STK39 = STK39 (Homo sapiens, UniProt Q9UEW8); conditions: read-out: Percent control / Zanubrutinib
PCTK1 = target: T3, PCTK1 (Homo sapiens, UniProt Q00536); conditions: read-out: Percent control / Zanubrutinib
T3 construct: gene CDK16

PAK2 = PAK2 (Homo sapiens, UniProt Q13177); conditions: read-out: Percent control / Zanubrutinib
IKK-alpha = target: T4, IKK-alpha (Homo sapiens, UniProt O15111); conditions: read-out: Percent control / Zanubrutinib
T4 construct: gene CHUK

CDK4-cyclinD1 = target: T5, CDK4-cyclinD1 (Homo sapiens, UniProt P11802); conditions: read-out: Percent control / Zanubrutinib
T5 construct: cyclinD1

DCAMKL1 = target: T6, DCAMKL1 (Homo sapiens, UniProt O15075); conditions: read-out: Percent control / Zanubrutinib
T6 construct: gene DCLK1

PIK3CB = PIK3CB (Homo sapiens, UniProt P42338); conditions: read-out: Percent control / Zanubrutinib
TAOK2 = TAOK2 (Homo sapiens, UniProt Q9UL54); conditions: read-out: Percent control / Acalabrutinib
PKN2 = PKN2 (Homo sapiens, UniProt Q16513); conditions: read-out: Percent control / Acalabrutinib
[1] = target: T7, ABL1(T315I)-nonphosphorylated (Homo sapiens, UniProt P00519, T315I); conditions: read-out: Percent control / Acalabrutinib
T7 construct: nonphosphorylated

EPHA6 = EPHA6 (Homo sapiens, UniProt Q9UF33); conditions: read-out: Percent control / Acalabrutinib
PRKD3 = PRKD3 (Homo sapiens, UniProt O94806); conditions: read-out: Percent control / Acalabrutinib
CDK3 = CDK3 (Homo sapiens, UniProt Q00526); conditions: read-out: Percent control / Acalabrutinib

Sequence of PRKD3 (O94806 whole entry): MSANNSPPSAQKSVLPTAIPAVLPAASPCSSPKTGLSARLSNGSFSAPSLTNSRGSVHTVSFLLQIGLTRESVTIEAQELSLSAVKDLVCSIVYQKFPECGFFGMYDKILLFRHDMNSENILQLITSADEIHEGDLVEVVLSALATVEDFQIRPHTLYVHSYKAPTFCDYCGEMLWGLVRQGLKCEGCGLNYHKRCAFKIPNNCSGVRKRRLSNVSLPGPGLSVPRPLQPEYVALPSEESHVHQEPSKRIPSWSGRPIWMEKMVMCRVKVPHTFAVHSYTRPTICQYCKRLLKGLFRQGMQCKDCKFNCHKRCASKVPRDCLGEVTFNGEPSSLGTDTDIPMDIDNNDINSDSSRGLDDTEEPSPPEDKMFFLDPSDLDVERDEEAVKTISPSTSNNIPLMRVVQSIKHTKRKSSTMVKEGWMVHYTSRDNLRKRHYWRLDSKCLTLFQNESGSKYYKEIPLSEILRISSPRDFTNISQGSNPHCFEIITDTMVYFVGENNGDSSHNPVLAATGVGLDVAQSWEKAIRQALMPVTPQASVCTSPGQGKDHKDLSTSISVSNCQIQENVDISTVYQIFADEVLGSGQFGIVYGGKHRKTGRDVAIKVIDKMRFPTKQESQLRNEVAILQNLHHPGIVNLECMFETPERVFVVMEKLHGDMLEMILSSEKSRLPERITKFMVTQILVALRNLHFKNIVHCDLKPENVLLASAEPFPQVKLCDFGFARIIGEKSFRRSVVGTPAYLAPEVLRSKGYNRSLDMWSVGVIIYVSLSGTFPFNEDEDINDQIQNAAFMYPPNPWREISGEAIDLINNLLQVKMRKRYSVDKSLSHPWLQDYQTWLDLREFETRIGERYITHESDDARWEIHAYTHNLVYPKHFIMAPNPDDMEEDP
T4 sequence (O15111 whole entry): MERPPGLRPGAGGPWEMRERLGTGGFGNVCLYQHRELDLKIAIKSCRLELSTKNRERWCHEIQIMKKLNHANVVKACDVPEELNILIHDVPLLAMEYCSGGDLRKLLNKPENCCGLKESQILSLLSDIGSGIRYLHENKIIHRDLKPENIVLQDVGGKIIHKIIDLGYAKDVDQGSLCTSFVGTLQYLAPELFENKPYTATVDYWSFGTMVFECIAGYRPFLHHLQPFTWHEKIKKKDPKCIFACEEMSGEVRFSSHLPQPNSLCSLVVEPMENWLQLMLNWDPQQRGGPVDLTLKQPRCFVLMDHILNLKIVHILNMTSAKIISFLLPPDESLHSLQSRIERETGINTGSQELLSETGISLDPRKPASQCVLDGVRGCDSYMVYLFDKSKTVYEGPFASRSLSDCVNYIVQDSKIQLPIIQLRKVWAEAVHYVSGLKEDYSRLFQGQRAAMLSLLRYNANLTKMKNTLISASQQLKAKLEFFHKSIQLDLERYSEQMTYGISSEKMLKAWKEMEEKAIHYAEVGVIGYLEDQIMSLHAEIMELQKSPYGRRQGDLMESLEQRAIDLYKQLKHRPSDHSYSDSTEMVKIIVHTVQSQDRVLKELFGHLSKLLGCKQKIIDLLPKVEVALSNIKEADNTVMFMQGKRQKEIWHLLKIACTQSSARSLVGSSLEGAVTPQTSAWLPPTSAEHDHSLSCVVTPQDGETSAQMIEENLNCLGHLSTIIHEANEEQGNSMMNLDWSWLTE
Sequence of GRK1 (Q15835 whole entry): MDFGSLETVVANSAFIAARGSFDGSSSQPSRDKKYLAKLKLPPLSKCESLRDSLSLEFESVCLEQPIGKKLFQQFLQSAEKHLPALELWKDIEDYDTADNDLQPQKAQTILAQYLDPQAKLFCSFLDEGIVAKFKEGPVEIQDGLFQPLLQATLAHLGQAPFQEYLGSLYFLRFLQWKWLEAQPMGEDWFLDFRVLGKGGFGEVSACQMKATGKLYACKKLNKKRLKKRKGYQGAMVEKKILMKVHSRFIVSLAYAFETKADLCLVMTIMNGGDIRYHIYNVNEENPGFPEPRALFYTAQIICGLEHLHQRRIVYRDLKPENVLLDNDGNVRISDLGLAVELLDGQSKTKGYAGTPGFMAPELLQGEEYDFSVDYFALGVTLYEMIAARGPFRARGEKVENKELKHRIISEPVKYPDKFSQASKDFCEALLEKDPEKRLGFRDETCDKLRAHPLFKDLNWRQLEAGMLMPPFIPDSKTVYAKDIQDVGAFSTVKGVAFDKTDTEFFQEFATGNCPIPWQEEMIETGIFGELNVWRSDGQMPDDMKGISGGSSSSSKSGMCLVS
Sequence of CASK (O14936 whole entry): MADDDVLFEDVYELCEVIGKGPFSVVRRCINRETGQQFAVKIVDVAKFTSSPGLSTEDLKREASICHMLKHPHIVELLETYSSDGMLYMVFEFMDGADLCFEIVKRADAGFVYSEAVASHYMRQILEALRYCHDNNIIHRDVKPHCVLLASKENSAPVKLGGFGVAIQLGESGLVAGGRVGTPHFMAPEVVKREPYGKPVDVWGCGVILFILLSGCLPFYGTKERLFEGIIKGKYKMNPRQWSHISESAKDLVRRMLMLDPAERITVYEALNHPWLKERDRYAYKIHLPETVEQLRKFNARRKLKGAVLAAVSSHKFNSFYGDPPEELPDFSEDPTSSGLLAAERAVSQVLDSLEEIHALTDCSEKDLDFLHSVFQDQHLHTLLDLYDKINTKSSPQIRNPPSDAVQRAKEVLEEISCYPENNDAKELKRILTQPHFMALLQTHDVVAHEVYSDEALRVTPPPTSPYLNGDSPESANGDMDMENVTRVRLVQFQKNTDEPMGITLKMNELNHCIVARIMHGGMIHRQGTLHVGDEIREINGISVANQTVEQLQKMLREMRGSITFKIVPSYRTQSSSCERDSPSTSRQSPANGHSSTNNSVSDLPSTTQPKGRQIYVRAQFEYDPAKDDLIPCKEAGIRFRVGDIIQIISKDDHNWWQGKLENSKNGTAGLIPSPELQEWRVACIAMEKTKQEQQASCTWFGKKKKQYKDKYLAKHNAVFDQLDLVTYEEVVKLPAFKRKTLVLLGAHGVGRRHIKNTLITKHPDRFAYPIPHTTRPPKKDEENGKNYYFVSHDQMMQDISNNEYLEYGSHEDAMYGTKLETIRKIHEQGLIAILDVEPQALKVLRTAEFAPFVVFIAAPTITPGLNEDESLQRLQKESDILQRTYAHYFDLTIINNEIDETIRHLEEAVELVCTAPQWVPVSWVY
T5 sequence (P11802 whole entry): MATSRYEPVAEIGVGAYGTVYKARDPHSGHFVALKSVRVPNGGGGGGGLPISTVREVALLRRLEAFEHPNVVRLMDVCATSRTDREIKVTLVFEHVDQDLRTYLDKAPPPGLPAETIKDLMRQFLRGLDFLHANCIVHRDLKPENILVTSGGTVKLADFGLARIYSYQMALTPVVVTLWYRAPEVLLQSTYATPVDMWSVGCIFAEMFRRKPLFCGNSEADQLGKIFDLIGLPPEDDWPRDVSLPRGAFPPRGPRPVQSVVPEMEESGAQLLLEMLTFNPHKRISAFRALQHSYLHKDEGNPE
T5 sequence (P24385 whole entry partner): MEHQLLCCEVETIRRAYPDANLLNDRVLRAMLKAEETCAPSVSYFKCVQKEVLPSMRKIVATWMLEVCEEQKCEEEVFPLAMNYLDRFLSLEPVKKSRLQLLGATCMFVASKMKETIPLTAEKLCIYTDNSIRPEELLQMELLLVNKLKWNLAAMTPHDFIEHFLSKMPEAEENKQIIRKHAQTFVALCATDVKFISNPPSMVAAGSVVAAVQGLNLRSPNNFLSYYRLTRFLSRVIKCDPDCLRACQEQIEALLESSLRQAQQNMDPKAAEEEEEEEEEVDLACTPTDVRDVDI
Sequence of TLK2 (Q86UE8 whole entry): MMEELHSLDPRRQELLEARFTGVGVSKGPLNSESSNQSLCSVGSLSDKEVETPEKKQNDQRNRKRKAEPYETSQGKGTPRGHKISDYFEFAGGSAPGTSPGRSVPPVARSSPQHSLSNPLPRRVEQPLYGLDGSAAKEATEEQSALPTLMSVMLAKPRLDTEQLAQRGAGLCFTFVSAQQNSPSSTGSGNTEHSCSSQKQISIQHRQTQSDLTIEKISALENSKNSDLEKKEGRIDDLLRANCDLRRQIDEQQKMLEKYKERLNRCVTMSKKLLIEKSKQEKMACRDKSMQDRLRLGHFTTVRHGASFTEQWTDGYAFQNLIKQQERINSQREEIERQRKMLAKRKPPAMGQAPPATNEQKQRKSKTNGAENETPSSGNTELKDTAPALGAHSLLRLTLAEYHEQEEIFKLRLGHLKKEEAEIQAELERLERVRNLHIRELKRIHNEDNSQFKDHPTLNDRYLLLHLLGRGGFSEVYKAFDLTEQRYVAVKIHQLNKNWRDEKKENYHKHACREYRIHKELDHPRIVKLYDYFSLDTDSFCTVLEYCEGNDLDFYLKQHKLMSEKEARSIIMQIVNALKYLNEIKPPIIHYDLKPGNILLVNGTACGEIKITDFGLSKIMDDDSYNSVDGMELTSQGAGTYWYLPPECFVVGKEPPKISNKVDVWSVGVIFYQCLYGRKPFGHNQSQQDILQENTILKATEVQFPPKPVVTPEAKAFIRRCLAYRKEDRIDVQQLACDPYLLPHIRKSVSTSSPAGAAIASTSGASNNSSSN
Sequence of NEK6 (Q9HC98 whole entry): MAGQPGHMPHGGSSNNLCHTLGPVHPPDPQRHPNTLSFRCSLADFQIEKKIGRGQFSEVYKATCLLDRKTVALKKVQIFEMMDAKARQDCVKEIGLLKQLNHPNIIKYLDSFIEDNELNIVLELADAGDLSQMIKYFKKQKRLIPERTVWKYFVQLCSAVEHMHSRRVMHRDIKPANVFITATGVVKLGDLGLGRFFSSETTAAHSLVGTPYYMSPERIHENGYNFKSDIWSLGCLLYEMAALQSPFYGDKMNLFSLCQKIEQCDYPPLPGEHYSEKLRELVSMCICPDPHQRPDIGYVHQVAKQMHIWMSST

Compound `CC#CC(=O)N1CC[C@@H](n2c(=O)n(-c3ccc(Oc4ccccc4)cc3)c3c(N)ncnc32)C1` [Tirabrutinib] has a remaining binding at 0.3 µM (TLK2) of 90% and a remaining binding at 0.3 µM (PRKR) of 93%.
Work on `C=CC(=O)N1CCC[C@@H](n2nc(-c3ccc(Oc4ccccc4)cc3)c3c(N)ncnc32)C1` [Ibrutinib] yielded a remaining binding at 0.3 µM (DAPK3) of 92%.
For `C=CC(=O)N1CCC([C@@H]2CCNc3c(C(N)=O)c(-c4ccc(Oc5ccccc5)cc4)nn32)CC1` [Zanubrutinib], the remaining binding at 0.3 µM (ACVR1) was 100%, the remaining binding at 0.3 µM (PRKG2) was 85% and the remaining binding at 0.3 µM (CASK) was 72%. The remaining binding at 0.3 µM (SNARK) was 97%, the remaining binding at 0.3 µM (PIK3CA(E545A)) was 59% and the remaining binding at 0.3 µM (NEK6) was 88%. For the same compound, the remaining binding at 0.3 µM (GRK1) was 100%, the remaining binding at 0.3 µM (STK39) was 96% and the remaining binding at 0.3 µM (PCTK1) was 100%. It also gave a remaining binding at 0.3 µM (PAK2) of 83%, a remaining binding at 0.3 µM (IKK-alpha) of 84% and a remaining binding at 0.3 µM (CDK4-cyclinD1) of 80%. The remaining binding at 0.3 µM (DCAMKL1) was 100% and the remaining binding at 0.3 µM (PIK3CB) was 98%.
`CC#CC(=O)N1CCC[C@H]1c1nc(-c2ccc(C(=O)Nc3ccccn3)cc2)c2c(N)nccn12` [Acalabrutinib] showed a remaining binding at 0.3 µM (TAOK2) of 93%, a remaining binding at 0.3 µM (PKN2) of 93% and a remaining binding at 0.3 µM [1] of 96%. It also gave a remaining binding at 0.3 µM (EPHA6) of 93%, a remaining binding at 0.3 µM (PRKD3) of 81% and a remaining binding at 0.3 µM (CDK3) of 88%.
